Reference: ChEMBL document CHEMBL1201862, “PubChem BioAssay data set” (2004)
Calls of active or inactive are those of the source.

Tests used:
[1] = target: T1, Neuropeptide Y receptor type 2 (Homo sapiens, UniProt P49146); format: functional, cell-based;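 on IC50: HEK293 cells expressing the receptor and a CNG channel; stimulus was NPY near EC95 followed by isoproterenol to raise cAMP; antagonist potency measured as restoring cAMP signal that NPY suppresses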
T1 sequence (P49146 whole entry): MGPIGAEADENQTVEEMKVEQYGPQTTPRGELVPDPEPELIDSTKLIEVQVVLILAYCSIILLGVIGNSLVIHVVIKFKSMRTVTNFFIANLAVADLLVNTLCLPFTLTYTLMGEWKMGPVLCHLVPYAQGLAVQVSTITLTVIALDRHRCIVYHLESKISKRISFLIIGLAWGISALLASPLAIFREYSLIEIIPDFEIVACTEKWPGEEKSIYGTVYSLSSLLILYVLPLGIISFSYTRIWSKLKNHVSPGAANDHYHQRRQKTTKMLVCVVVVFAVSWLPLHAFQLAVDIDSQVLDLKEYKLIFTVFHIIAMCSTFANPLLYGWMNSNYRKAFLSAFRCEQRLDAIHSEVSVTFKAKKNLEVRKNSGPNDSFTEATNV

[2] = target: T2, Neuropeptide Y receptor type 1 (Homo sapiens, UniProt P25929); format: functional;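 on IC50: HEK293 cells with a CNG channel challenged with NPY then isoproterenol; potency as antagonist that reverses NPY suppression of cAMP signal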
T2 sequence (P25929 whole entry): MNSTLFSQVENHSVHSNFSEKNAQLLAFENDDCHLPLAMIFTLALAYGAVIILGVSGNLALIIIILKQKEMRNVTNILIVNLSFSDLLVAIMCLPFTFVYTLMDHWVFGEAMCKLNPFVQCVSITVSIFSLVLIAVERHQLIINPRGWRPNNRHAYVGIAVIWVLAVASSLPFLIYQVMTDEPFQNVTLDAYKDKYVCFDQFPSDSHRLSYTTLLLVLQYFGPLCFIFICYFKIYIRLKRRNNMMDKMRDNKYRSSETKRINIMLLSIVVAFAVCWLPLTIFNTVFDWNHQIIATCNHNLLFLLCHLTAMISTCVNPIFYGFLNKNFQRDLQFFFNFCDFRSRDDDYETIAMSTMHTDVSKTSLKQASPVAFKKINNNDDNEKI

Cytochrome P450 2D6 = Cytochrome P450 2D6 (Homo sapiens, UniProt P10635); assay: qHTS Assay for Inhibitors and Substrates of Cytochrome P450 2D6. [Related pubchem assays: 410 ]; format: ADME; conditions: read-out: Potency
Cytochrome P450 2D6, sequence (P10635 whole entry): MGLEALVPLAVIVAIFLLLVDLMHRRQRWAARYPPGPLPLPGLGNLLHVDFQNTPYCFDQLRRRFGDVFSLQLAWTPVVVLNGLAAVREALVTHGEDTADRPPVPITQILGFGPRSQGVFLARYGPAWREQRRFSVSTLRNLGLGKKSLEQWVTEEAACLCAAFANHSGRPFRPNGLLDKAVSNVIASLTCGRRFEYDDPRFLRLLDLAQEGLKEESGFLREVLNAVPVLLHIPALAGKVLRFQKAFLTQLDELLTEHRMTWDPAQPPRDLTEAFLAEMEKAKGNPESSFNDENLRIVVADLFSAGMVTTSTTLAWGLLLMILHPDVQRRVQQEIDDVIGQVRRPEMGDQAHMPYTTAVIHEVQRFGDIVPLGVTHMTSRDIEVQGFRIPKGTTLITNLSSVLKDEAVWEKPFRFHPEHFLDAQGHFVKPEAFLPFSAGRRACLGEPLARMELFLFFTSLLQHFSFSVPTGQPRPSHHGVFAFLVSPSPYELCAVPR

[3] = target: Melanin-concentrating hormone receptor 1 (Homo sapiens, UniProt Q99705); assay: Fluorescence-based counterscreen for antagonists of the G-protein coupled receptor 7 (GPR7): cell-based high throughput dose response assay to identify antagonists of the melanin-concentrating hormone receptor 1 (MCHR1).; format: functional
Melanin-concentrating hormone receptor 1, sequence (Q99705 whole entry): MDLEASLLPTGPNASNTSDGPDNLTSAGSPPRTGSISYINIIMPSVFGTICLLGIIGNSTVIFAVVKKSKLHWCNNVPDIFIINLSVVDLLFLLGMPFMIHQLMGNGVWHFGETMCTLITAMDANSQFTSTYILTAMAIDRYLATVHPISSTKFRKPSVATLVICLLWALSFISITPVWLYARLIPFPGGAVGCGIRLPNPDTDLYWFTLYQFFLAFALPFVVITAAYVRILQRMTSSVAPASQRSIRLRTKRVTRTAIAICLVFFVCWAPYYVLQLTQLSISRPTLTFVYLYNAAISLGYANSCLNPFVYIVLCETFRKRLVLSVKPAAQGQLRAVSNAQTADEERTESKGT

[4] = target: T3, Neuropeptides B/W receptor type 1 (Homo sapiens, UniProt P48145); assay: Fluorescence-based dose response cell-based high throughput screening assay to identify antagonists of the G-protein coupled receptor 7 (GPR7). [Related pubchem assays: 1952 (Screening assay (GPR7 antagonists).), 1880 (Summary AID.)]; format: functional
T3 sequence (P48145 whole entry): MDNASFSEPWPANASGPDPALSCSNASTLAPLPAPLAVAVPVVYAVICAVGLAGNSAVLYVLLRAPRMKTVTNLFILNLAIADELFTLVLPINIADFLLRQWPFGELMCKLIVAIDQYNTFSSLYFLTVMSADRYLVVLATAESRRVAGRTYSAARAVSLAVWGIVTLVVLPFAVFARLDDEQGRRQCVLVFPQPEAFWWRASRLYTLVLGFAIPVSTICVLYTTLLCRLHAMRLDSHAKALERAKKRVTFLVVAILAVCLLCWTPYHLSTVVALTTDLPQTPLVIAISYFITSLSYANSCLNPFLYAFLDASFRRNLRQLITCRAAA

Streptokinase A = target: T4, Streptokinase A (Streptococcus pyogenes serotype M1, UniProt P10520); assay: S. pyogenes streptokinase expression inhibitors, potency, dose response, plasminogen activation absorbance, OD405 (AID 1914); format: functional, Streptococcus pyogenes M1 GAS;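 further: secreted streptokinase activity via plasminogen activation per viability signal from cell pellet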
T4 sequence (P10520 whole entry): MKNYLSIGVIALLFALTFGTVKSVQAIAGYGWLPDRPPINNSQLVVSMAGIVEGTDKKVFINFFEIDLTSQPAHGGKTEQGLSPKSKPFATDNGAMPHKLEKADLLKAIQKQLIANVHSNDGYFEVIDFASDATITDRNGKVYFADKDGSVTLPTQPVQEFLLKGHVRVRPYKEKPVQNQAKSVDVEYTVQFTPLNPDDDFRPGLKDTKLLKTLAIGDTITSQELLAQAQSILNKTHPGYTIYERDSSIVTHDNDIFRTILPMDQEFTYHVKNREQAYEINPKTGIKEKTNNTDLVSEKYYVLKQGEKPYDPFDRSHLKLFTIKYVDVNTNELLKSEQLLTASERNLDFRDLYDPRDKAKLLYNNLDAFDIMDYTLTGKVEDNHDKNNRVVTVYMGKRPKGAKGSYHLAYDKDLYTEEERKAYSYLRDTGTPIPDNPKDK

[5] = M. tuberculosis H37Rv growth inhibitors, H37Rv strain (AID 1626); format: functional
[6] = target: T1, Neuropeptide Y receptor type 2; assay: Fluorescence-based counterscreen for agonists of NPY-Y1: cell-based high-throughput dose response assay for agonists of NPY-Y2.; format: functional
[7] = target: T2, Neuropeptide Y receptor type 1; assay: Fluorescence-based dose response cell-based high-throughput screening assay for potentiators or agonists of NPY-Y1.; format: functional
Streptococcus = assay: Group A Streptococcus viability loss, dose response, counter-screen for streptokinase expression inhibitor project, luminescence, BacTiterGlo (AID 1915); format: functional, organism-based;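 further: potency for reduction of bacterial viability or growth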
[8] = target: T1, Neuropeptide Y receptor type 2; assay: Fluorescence counterscreen for potentiators or agonists of NPY-Y1: Cell-based high-throughput dose response assay for potentiators or agonists of NPY-Y2.; format: functional
HEK293 = assay: Fluorescence-based counterscreen for potentiators or agonists of NPY-Y1: cell-based high-throughput dose response assay for inhibitors of cyclic nucleotide gated ion channel (CNGC) activity. In this assay, the parental HEK293 cell line transfected with a cyclic-nucleotide gated ion channel (CNGC)-based cAMP sensor is used to measure inhibition of isoproterenol-induced CNGC …; format: functional; conditions: Homo sapiens
[9] = test system: Streptococcus sp. 'group A'; assay: growth inhibition of control SK(-) GAS strain, dose response, counter-screen for streptokinase expression inhibitor project, luminescence, kanamycin, BacTiterGlo, confirmation (AID 1900); format: functional, organism-based
[10] = NIH-3T3 fibroblast cytotoxicity, dose response, cytotoxicity control, cell-based, fluorescence, Alamar Blue, secondary assay (AID 2327); format: functional;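 further: NIH-3T3 mouse fibroblasts cultured with fluconazole at 8 µg/mL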
[11] = target: ATP-dependent molecular chaperone HSP82 (Candida albicans (strain WO-1) (Yeast), UniProt C4YTQ8); assay: loss of DOC-induced GRE-beta-galactosidase reporter signal, dose response, Hsp90 inhibitor project, S. cerevisiae, luminescence (AID 2400); format: functional, cell-based;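 further: beta-galactosidase luminescence from glucocorticoid response element reporter as proxy for Hsp90 function; inhibitor potency where signal loss means Hsp90 inhibition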
ATP-dependent molecular chaperone HSP82, sequence (C4YTQ8 whole entry): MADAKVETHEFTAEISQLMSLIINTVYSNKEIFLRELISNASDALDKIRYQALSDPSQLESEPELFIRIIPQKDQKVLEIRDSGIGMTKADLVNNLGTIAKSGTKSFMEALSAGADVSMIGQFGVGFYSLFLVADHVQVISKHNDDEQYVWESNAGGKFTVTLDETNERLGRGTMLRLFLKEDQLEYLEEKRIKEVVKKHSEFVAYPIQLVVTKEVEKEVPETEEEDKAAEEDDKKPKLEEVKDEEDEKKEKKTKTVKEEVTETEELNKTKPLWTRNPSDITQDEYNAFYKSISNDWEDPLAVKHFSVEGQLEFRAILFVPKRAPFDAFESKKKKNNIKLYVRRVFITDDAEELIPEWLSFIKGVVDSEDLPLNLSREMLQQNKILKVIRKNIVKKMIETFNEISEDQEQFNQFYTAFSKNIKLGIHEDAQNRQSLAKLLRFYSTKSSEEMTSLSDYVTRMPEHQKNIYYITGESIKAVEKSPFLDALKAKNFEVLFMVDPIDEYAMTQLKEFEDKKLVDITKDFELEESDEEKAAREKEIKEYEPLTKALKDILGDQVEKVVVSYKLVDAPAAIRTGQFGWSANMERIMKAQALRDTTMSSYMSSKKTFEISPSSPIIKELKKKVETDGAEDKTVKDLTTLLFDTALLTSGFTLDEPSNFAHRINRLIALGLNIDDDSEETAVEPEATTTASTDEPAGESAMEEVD

[12] = C. albicans growth with fluconazole, confirmation, fluorescence, retest (AID 2467); format: functional, cell-based
[13] = target: T5, Serine/threonine-protein phosphatase (Candida dubliniensis (strain CD36 / CBS 7987 / NCPF 3949 / NRRLY-17841) (Yeast), UniProt B9W6M3); assay: calcineurin pathway inhibitors in yeast reporter, dose response, S. cerevisiae, CDRE-lacZ, luminescence, secondary (AID 2388); format: functional, cell-based;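 further: yeast reporter cells carrying a calcineurin-responsive lacZ construct stimulated with calcium chloride; luminescent beta-galactosidase reporter signal in whole cells rather than isolated phosphatase activity; potency for inhibition where a drop in reporter signal means calcineurin blockade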
T5 sequence (B9W6M3 whole entry): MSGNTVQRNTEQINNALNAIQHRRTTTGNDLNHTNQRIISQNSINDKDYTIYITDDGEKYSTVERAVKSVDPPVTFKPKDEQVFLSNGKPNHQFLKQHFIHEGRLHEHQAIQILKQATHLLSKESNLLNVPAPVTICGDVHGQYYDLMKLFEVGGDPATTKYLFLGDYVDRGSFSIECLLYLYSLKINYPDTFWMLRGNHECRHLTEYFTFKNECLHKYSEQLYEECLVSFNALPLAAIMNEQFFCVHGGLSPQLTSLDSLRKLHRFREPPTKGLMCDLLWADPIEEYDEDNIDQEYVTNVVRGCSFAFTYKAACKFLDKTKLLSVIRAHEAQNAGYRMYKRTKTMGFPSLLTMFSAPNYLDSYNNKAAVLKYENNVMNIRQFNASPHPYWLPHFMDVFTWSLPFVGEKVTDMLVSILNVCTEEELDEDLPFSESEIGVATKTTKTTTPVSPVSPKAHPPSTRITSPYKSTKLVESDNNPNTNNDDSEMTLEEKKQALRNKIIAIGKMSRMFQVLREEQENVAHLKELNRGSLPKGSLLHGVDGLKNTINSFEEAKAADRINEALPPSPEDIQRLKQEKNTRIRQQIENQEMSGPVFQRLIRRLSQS

[14] = HIV-1 Env-mediated cell fusion inhibitors, dose response, CCR5-tropic Env (AID 2279); format: functional
Large T antigen = Large T antigen (Simian virus 40, UniProt P03070); format: functional, Betapolyomavirus macacae;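 further: Confirmatory-stage PubChem screen for compounds that inhibit SV40 T antigen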
Large T antigen, sequence (P03070 whole entry): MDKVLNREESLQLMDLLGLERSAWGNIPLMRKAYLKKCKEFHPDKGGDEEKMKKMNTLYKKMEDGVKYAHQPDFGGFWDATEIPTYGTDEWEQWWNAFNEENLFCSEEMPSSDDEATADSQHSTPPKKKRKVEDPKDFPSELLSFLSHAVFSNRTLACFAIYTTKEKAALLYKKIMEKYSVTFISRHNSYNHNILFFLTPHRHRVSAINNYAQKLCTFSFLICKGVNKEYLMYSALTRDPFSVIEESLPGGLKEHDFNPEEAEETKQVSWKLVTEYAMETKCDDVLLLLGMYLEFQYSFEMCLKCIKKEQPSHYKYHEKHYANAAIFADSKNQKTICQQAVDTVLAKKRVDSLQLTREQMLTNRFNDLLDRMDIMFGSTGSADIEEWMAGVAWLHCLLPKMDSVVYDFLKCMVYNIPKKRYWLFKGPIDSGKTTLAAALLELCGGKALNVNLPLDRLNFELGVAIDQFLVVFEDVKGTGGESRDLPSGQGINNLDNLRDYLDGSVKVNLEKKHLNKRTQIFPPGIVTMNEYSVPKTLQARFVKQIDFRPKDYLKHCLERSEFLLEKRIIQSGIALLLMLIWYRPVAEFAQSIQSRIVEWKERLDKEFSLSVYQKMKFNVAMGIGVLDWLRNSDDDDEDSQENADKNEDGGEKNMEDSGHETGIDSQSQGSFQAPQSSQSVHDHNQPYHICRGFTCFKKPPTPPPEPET

With `CCCCNC(=O)c1onc(CSc2ccccc2F)c1C(=O)O` the IC50 [1] was 13.3 µM (not active) and the IC50 [2] was 14.7 µM (not active).

For `C=C(C)C(O)/C=C/c1ccc(Br)cc1` (stereo not given), the AC50 (Cytochrome P450 2D6) was 3.16 µM (inconclusive).

For `COc1ccc(OC)c(NS(=O)(=O)c2c(C(=O)N3CCCCCC3)c(C)n(C)c2C)c1`, the IC50 [3] was > 43.8 µM (not active) and the IC50 [4] was > 43.8 µM (not active).

In the case of `COC(=O)C1C(C)OC(=O)NC1c1ccccc1` (stereo not given), the AC50 (Cytochrome P450 2D6) is reported as 3.16 µM (inconclusive).

For `Clc1ccc(-n2c(-c3cccc(Br)c3)nc3nc4ccccc4nc32)cc1`, the EC50 (Streptokinase A) was > 150 µM (not active), the IC50 [5] was > 100 µM (active) and the EC50 [6] was 2.98 µM (active). For the same compound, the EC50 [7] was 10.1 µM (not active), the EC50 (Streptococcus) was 79.4 µM (active) and the EC50 [8] was 12 µM (not active). The IC50 (HEK293) was 5.7 µM (active) and the EC50 [9] was 1.58 µM (active).

For `O=C(N/N=C/c1cc(Br)c(O)c(Br)c1)c1cc2c(ccc3ccccc32)o1`, the EC50 [10] was 64.7 µM (active), the EC50 [11] was 0.763 µM (active) and the EC50 [12] was 1.45 µM (active). The EC50 [13] was 2.58 µM (active), the IC50 [14] was > 50 µM (active) and the IC50 (Large T antigen) was 19.9 µM (active).
